Earlier results, collected in US20260183398A1, “RADIOLUMINESCENT NANOPARTICLES FOR RADIATION-TRIGGERED CONTROLLED RELEASE DRUGS” (Purdue Research Foundation, priority 2017, published 2026).

What was measured:
[1] = systemic chemotherapy, about 200 mg/m2
[2] = PTX intratumorally delivered to mouse xenografts in the polymer encapsulated form
[3] = reported

In the case of CC(=O)O[C@H]1C(=O)[C@@]2(C)[C@H]([C@H](OC(=O)c3ccccc3)[C@]3(O)C[C@H](OC(=O)[C@H](O)[C@@H](NC(=O)c4ccccc4)c4ccccc4)C(C)=C1C3(C)C)[C@]1(OC(C)=O)CO[C@@H]1C[C@@H]2O [PTX, paclitaxel], the “patients with dermatological side effects (skin, hair, nail)” value [1] is listed as 86.8%, the “tumor elimination rate constant ket” value [2] is listed as 0,005 h^−1 and the “in vitro IC90” value [3] is listed as “≈ 0.09 μg PTX per mg tumor”. The “in vitro IC90 (PTX concentration giving rise to 90% cell kill in vitro)” value [3] was “about 90 μg/mL”.
